The text below walks through data of patent US8962843B2, “1,3,4-oxadiazole and 1,3,4-thiadiazole beta-lactamase inhibitors” (priority 2012, dated 2015).

Where a name gives a salt, the structure may show the parent alone.

For experiment [1], the system named is bacterial strains that express KPC β-lactamases. The experiment can be described thus: Standard BLI potentiation MIC / synergy MIC assays, strains expressing KPC β-lactamases. Type of experiment: cell-based. Conditions: in combination with a β-lactam; comparator Avibactam. The procedure:
(§1) The experimental protocol was performed according to Clinical and Laboratory Standards Institute (CLSI) guidelines with modifications as described below (CLSI guidelines can be derived from the CLSI document M07-A9 published in January 2012: “Methods for Dilution Antimicrobial Susceptibility Tests for Bacteria That Grow Aerobically; Approved Standard-Ninth Edition”).
(§2) To prepare for MIC testing, frozen glycerol stocks of clinical isolates (Klebsiella pneumoniae, Eschericia coli, Enterobacter spp, Citrobacter spp, or Pseudomonas aeruginosa) were used to streak for isolated colonies on rich, non-selective, tryptic soy agar containing 5% sheep's blood (TSAB). Frozen glycerol stocks of laboratory engineered, isogenic E. coli strains, which contain cloned β-lactamase expressing plasmids were used to streak for isolated colonies on rich, selective LB agar supplemented with 25 μg/mL tetracycline to maintain the plasmid. All strains were incubated at 37° C. for 18-24 hrs.
(§3) On the day of testing, primary cultures were started by scraping off 5-10 colonies from the TSAB plates containing clinical strains or the tetracycline supplemented LB plates containing engineered strains. The clinical strain material was suspended in ˜5 mL of cation adjusted Mueller Hinton Broth (CAMHB) in 14 mL culture tubes. The engineered strain material was suspended in CAMHB (supplemented with 25 μg/mL tetracycline) in 14 mL culture tubes. All strains were incubated at 37° C. with aeration (200 rpm) for ˜2 hrs until the optical density at 600 nm (OD600) was >0.1.
(§4) The two compound components of the assay were each diluted in CAMHB and added to the 96-well broth microdilution assay plates. 50 μL of the β-lactam was added to each well of the assay plate in 2-fold dilutions with final concentrations ranging from 128 to 0.13 μg/mL. 25 μL of the BLI compound was added to all wells in the broth microdilution plates at a final concentration of 4 μg/mL. Inoculum cultures were prepared by standardizing the primary cultures to OD600=0.1 and then adding 20 μL of the adjusted primary culture per 1 mL CAMHB for clinical strains or CAMHB (supplemented with tetracycline at 100 μg/mL) for engineered strains, so that the final inoculum density was ˜10^5 colony forming units per milliliter. Diluted inoculum cultures were used to inoculate 25 μl, per well in 96-well broth microdilution assay plates. The final volume of each well was 100 μL and contained a β-lactam at different concentrations, a BLlcompound at 4 μg/mL concentration, the bacterial culture at an OD600 of approximately 0.001 and when necessary tetracycline at 25 μg/mL.
(§5) Plates were incubated for 18-20 hours at 37° C. with aeration (200 rpm). Following incubation, growth was confirmed visually placing plates over a viewing apparatus (stand with a mirror underneath) and then OD600 was measured using a SpectraMax 340PC384 plate reader (Molecular Devices, Sunnyvale, Calif.). Growth was defined as turbidity that could be detected with the naked eye or achieving minimum OD600 of 0.1. MIC values were defined as the lowest concentration producing no visible turbidity.
(§6) The synergy MIC (sMIC) assay determines the concentration of the BLI required to potentiate the activity of a fixed concentration of a β-lactam antibiotic against β-lactamase producing bacterial strains. The experimental protocol was performed according to Clinical and Laboratory Standards Institute (CLSI) guidelines with modifications as described below (CLSI guidelines can be derived from the CLSI document M07-A9 published in January 2012: “Methods for Dilution Antimicrobial Susceptibility Tests for Bacteria That Grow Aerobically; Approved Standard-Ninth Edition”). […]

Experiment [2] has as its system bacterial strains that express the class D cephalosporinase OXA-15. The experiment can be described thus: Standard BLI potentiation MIC / synergy MIC assays, strains expressing OXA-15. Type of experiment: cell-based, E. coli. Conditions: in combination with a β-lactam; comparator Avibactam (CCC). The procedure:
as §1, §2, §3, §4, §5, §6

For `N=C(N)NCC1(c2nnc([C@@H]3CC[C@@H]4CN3C(=O)N4OS(=O)(=O)O)o2)CC1` [Compound 723, (2S,5R)-2-(5-(1-(guanidinomethyl)cyclopropyl)-1,3,4-oxadiazol-2-yl)-7-oxo-1,6-diazabicyclo[3.2.1]octan-6-yl hydrogen sulfate], the “activity and/or spectrum of activity against bacterial strains that express KPC β-lactamases, compared with Avibactam” value in experiment [1] is listed as “more active than Avibactam for at least one, bacterial strain that expresses KPC β-lactamase and/or show a better spectrum of activity”. For the same molecule, the “activity against bacterial strains that express the class D cephalosporinase OXA-15, compared with Avibactam” value in experiment [2] was “more active than Avibactam”.
For `NC1(Cc2nnc([C@@H]3CC[C@@H]4CN3C(=O)N4OS(=O)(=O)O)o2)CC1` [Compound 724, (2S,5R)-2-(5-((1-aminocyclopropyl)methyl)-1,3,4-oxadiazol-2-yl)-7-oxo-1,6-diazabicyclo[3.2.1]octan-6-yl hydrogen sulfate], in experiment [1], the “activity and/or spectrum of activity against bacterial strains that express KPC β-lactamases, compared with Avibactam” value is given as “more active than Avibactam for at least one, bacterial strain that expresses KPC β-lactamase and/or show a better spectrum of activity”. In experiment [2], the “activity against bacterial strains that express the class D cephalosporinase OXA-15, compared with Avibactam” value is reported as “more active than Avibactam”.
Consider `O=C1N2C[C@@H](CC[C@H]2c2nnc(CNC3CNC3)o2)N1OS(=O)(=O)O` [Compound 726, (2S,5R)-2-(5-((azetidin-3-ylamino)methyl)-1,3,4-oxadiazol-2-yl)-7-oxo-1,6-diazabicyclo[3.2.1]octan-6-yl hydrogen sulfate], for which the “activity and/or spectrum of activity against bacterial strains that express KPC β-lactamases, compared with Avibactam” value in experiment [1] is listed as “more active than Avibactam for at least one, bacterial strain that expresses KPC β-lactamase and/or show a better spectrum of activity”. Besides, in experiment [2], the “activity against bacterial strains that express the class D cephalosporinase OXA-15, compared with Avibactam” value is given as “more active than Avibactam”.
As to `N[C@H]1C[C@H](c2nnc([C@@H]3CC[C@@H]4CN3C(=O)N4OS(=O)(=O)O)o2)C1` [Compound 727, (2S,5R)-2-(5-((1r,3S)-3-aminocyclobutyl)-1,3,4-oxadiazol-2-yl)-7-oxo-1,6-diazabicyclo[3.2.1]octan-6-yl hydrogen sulfate], in experiment [1], the “activity and/or spectrum of activity against bacterial strains that express KPC β-lactamases, compared with Avibactam” value is listed as “more active than Avibactam for at least one, bacterial strain that expresses KPC β-lactamase and/or show a better spectrum of activity”. For the same molecule, in experiment [2], the “activity against bacterial strains that express the class D cephalosporinase OXA-15, compared with Avibactam” value was “more active than Avibactam”.
With `N[C@H]1C[C@@H](Cc2nnc([C@@H]3CC[C@@H]4CN3C(=O)N4OS(=O)(=O)O)o2)C1` [Compound 728, (2S,5R)-2-(5-(((1s,3R)-3-aminocyclobutyl)methyl)-1,3,4-oxadiazol-2-yl)-7-oxo-1,6-diazabicyclo[3.2.1]octan-6-yl hydrogen sulfate], the “activity and/or spectrum of activity against bacterial strains that express KPC β-lactamases, compared with Avibactam” value in experiment [1] is “more active than Avibactam for at least one, bacterial strain that expresses KPC β-lactamase and/or show a better spectrum of activity”. In addition, the “activity against bacterial strains that express the class D cephalosporinase OXA-15, compared with Avibactam” value in experiment [2] is reported as “more active than Avibactam”.
For the molecule `N[C@@H]1CC[C@H](c2nnc([C@@H]3CC[C@@H]4CN3C(=O)N4OS(=O)(=O)O)o2)C1` [Compound 729, (2S,5R)-2-(5-((1S,3R)-3-aminocyclopentyl)-1,3,4-oxadiazol-2-yl)-7-oxo-1,6-diazabicyclo[3.2.1]octan-6-yl hydrogen sulfate], the “activity and/or spectrum of activity against bacterial strains that express KPC β-lactamases, compared with Avibactam” value in experiment [1] is “more active than Avibactam for at least one, bacterial strain that expresses KPC β-lactamase and/or show a better spectrum of activity”. Further, in experiment [2], the “activity against bacterial strains that express the class D cephalosporinase OXA-15, compared with Avibactam” value is “more active than Avibactam”.
On to `N=C(N)NCC(O)Cc1nnc([C@@H]2CC[C@@H]3CN2C(=O)N3OS(=O)(=O)O)o1` (stereo partly drawn) [Compound 730, (2S,5R)-2-(5-(3-guanidino-2-hydroxypropyl)-1,3,4-oxadiazol-2-yl)-7-oxo-1,6-diazabicyclo[3.2.1]octan-6-yl hydrogen sulfate], for which the “activity and/or spectrum of activity against bacterial strains that express KPC β-lactamases, compared with Avibactam” value in experiment [1] is “more active than Avibactam for at least one, bacterial strain that expresses KPC β-lactamase and/or show a better spectrum of activity”. Further, the “activity against bacterial strains that express the class D cephalosporinase OXA-15, compared with Avibactam” value in experiment [2] was “more active than Avibactam”.
For the molecule `N=C(N)NC[C@@H](O)c1nnc([C@@H]2CC[C@@H]3CN2C(=O)N3OS(=O)(=O)O)o1` [Compound 731, (2S,5R)-2-(5-((R)-2-guanidino-1-hydroxyethyl)-1,3,4-oxadiazol-2-yl)-7-oxo-1,6-diazabicyclo[3.2.1]octan-6-yl hydrogen sulfate], the “activity and/or spectrum of activity against bacterial strains that express KPC β-lactamases, compared with Avibactam” value in experiment [1] is “more active than Avibactam for at least one, bacterial strain that expresses KPC β-lactamase and/or show a better spectrum of activity”. Besides, the “activity against bacterial strains that express the class D cephalosporinase OXA-15, compared with Avibactam” value in experiment [2] is recorded as “more active than Avibactam”.
In the case of `N=C(N)NC[C@H](O)c1nnc([C@@H]2CC[C@@H]3CN2C(=O)N3OS(=O)(=O)O)o1` [Compound 732, (2S,5R)-2-(5-((S)-2-guanidino-1-hydroxyethyl)-1,3,4-oxadiazol-2-yl)-7-oxo-1,6-diazabicyclo[3.2.1]octan-6-yl hydrogen sulfate], the “activity and/or spectrum of activity against bacterial strains that express KPC β-lactamases, compared with Avibactam” value in experiment [1] is “more active than Avibactam for at least one, bacterial strain that expresses KPC β-lactamase and/or show a better spectrum of activity”. Besides, the “activity against bacterial strains that express the class D cephalosporinase OXA-15, compared with Avibactam” value in experiment [2] is recorded as “more active than Avibactam”.
With `CNCCCc1nnc([C@@H]2CC[C@@H]3CN2C(=O)N3OS(=O)(=O)O)o1` [Compound 734, (2S,5R)-2-(5-β-(methylamino)propyl)-1,3,4-oxadiazol-2-yl)-7-oxo-1,6-diazabicyclo[3.2.1]octan-6-yl hydrogen sulfate], the “activity and/or spectrum of activity against bacterial strains that express KPC β-lactamases, compared with Avibactam” value in experiment [1] is “more active than Avibactam for at least one, bacterial strain that expresses KPC β-lactamase and/or show a better spectrum of activity”. In experiment [2], the “activity against bacterial strains that express the class D cephalosporinase OXA-15, compared with Avibactam” value is given as “more active than Avibactam”.
On to `NCCCCc1nnc([C@@H]2CC[C@@H]3CN2C(=O)N3OS(=O)(=O)O)o1` [Compound 735, (2S,5R)-2-(5-(4-aminobutyl)-1,3,4-oxadiazol-2-yl)-7-oxo-1,6-diazabicyclo[3.2.1]octan-6-yl hydrogen sulfate], for which the “activity and/or spectrum of activity against bacterial strains that express KPC β-lactamases, compared with Avibactam” value in experiment [1] is “more active than Avibactam for at least one, bacterial strain that expresses KPC β-lactamase and/or show a better spectrum of activity”. Moreover, the “activity against bacterial strains that express the class D cephalosporinase OXA-15, compared with Avibactam” value in experiment [2] is reported as “more active than Avibactam”.
`O=C1N2C[C@@H](CC[C@H]2c2nnc(CCNCCO)o2)N1OS(=O)(=O)O` [Compound 736, (2S,5R)-2-(5-(2-((2-hydroxyethyl)amino)ethyl)-1,3,4-oxadiazol-2-yl)-7-oxo-1,6-diazabicyclo[3.2.1]octan-6-yl hydrogen sulfate]: the “activity and/or spectrum of activity against bacterial strains that express KPC β-lactamases, compared with Avibactam” value in experiment [1] is reported as “more active than Avibactam for at least one, bacterial strain that expresses KPC β-lactamase and/or show a better spectrum of activity”. For the same molecule, in experiment [2], the “activity against bacterial strains that express the class D cephalosporinase OXA-15, compared with Avibactam” value was “more active than Avibactam”.
On to `CC(C)(N)Cc1nnc([C@@H]2CC[C@@H]3CN2C(=O)N3OS(=O)(=O)O)o1` [Compound 737, (2S,5R)-2-(5-(2-amino-2-methylpropyl)-1,3,4-oxadiazol-2-yl)-7-oxo-1,6-diazabicyclo[3.2.1]octan-6-yl hydrogen sulfate], for which the “activity and/or spectrum of activity against bacterial strains that express KPC β-lactamases, compared with Avibactam” value in experiment [1] is given as “more active than Avibactam for at least one, bacterial strain that expresses KPC β-lactamase and/or show a better spectrum of activity”. The “activity against bacterial strains that express the class D cephalosporinase OXA-15, compared with Avibactam” value in experiment [2] is given as “more active than Avibactam”.
